Assay [1] deals with SHR (Spontaneously hypertensive rat). The assay can be described thus: Systolic blood pressure of SHR by tail cuff method. The note with it: 5 hours after administration, HCTZ 10 mg/kg, pratosartan 3 mg/kg, mean ± SD, in mmHg (unit assumed); for systolic blood pressure level, Day 1: before drug 220-222. Format: in vivo. On the procedure: The systolic blood pressure level of male 20 weeks old SHR (Spontaneously hypertensive rat, SPF grade) was measured by tail cuff methods, and animals were randomized into 4 groups to balance the systolic blood pressure level among groups. 0.5% methylcellulose (MC) or drugs suspended in 0.5% MC were administered for 28 days, and systolic blood pressure levels after 5 hours of drug administration were measured at day 1, 7, 14 and 28. In table 3 , experimental groups, subject substances, doses, and the measured blood pressure levels (mean±standard deviation) were shown in table 4. Further, the subject substances were hydrochlorothiazide (HCTZ), pratosartan, and co-administration of HCTZ and pratosartan. The dose of HCTZ and pratosartan were 10 mg/kg and 3 mg/kg, respectively, and the dosage volume was 2 mL/kg in each case.

Assay [2] relates to male 6 weeks old SD rats. Nature of the assay: Uricosuric action estimated by delayed disappearance of blood phenol red. In kind it is in vivo, rat. The note with it: for The enhance rate of uric acid excretion (%): phenol red 75 mg/kg i.v. 3 h later, serum 1 h after, control group = 100%, mean ± SD. The method, then: The uricosuric action is estimated by the delayed disappearance of blood phenol red level as a marker. Namely, male 6 weeks old SD rats were orally administered 0.5% methylcellulose (MC) or pratosartan (30 mg/kg or 100 mg/kg), and after three hours, phenol red solution (75 mg/kg) was intravenously adirninstered. One hour after phenol red administration, blood sample was collected from abdominal aorta under ether anesthesia, and the amount of phenol red in serum was determined. The amount of phenol red level in control group was taken as 100%, and the delayed rate of phenol red disappearance from blood in pratosartan treated group was estimated as the enhance rate of uric acid excretion (%). In table 1, experimental groups, subject substances, doses and the enhance rates of uric acid excretion (mean±standard deviation).

Assay [3] relates to patients with mild and moderate essential hypertension complicated with hyperuricemia. Nature of the assay: Serum uric acid level in hypertensive patients complicated with hyperuricemia. Format: in vivo, human. The conditions noted are these: 17 patients, 40 to 160 mg/day. On the procedure: Studies were carried out intended for mild and moderate essential hypertension. 17 patients complicated with hyperuricemia were administered pratosartan, and serum uric acid levels (mg/dL) before drug administration and the last day during administration were determined. Further, the dose of from 40 to 160 mg/day was administered every four weeks by degrees if the hypotensive action was insufficient.

Assay [4] relates to patients with mild or moderate essential hypertension. Nature of the assay: Serum cholesterol level in patients with essential hypertension. Format: in vivo, human. The method, then: 107 patients with mild or moderate essential hypertension were administered at dose of from 40 to 160 mg/day was administered every four weeks by degrees if the hypotensive action was insufficient. Serum cholesterol level before pratosartan administration was compared with that of the last day during pratosartan administration in each patient. Also, a part of patients were other co-administered pratosartan and conventionally known hypolipidemic drugs. General names of co-administered drugs, doses and number of patients were as follows. Namely, the list was pravastatin (10 mg/day, 3 patients), simvastatin (5 mg/day, 3 patients), cerivastatin (0.15 mg/day, 2 patients), atorvastatin (5 mg/day, 1 patients), fenofibrate (150 mg/day, 1 patient) and probucol (500 mg/day, 1 patient). The results when the patients were classified in the presence and absence of other co-administered drugs, were shown in table 6 and 7. The result in the presence of co-administered drugs was shown in table 6, and the result in the absence of co-administered drug was shown in […]. Further, data were shown mean±standard deviation.

Structures are written as SMILES.

In the case of `NS(=O)(=O)c1cc2c(cc1Cl)NCNS2(=O)=O` [HCTZ, hydrochlorothiazide, reference compound], in assay [1], the “systolic blood pressure level, Day 1” value is recorded as 220 ± 2; the “systolic blood pressure level, Day 7” value is listed as 219 ± 3; the “systolic blood pressure level, Day 14” value is 219 ± 4; the “systolic blood pressure level, Day 28” value came to 214 ± 2.

Regarding `CCCc1nc2c(n1Cc1ccc(-c3ccccc3-c3nnn[nH]3)cc1)C(=O)CCCC2` [pratosartan, 2-propyl-3-{[2′-(1H-tetrazole-5-yl)biphenyl-4-yl]methyl}-5,6,7,8-tetrahydrocyclohepta imidazole-4-(3H)-one], the “The enhance rate of uric acid excretion (%)” value in assay [2] (30 mg/kg oral) is 105 ± 10%; in assay [2] (100 mg/kg oral), 172 ± 17%. Moreover, in assay [2] (SD rats, 30 or 100 mg/kg oral), the “excretion of uric acid” value is given as “enhance the excretion of uric acid”. Also, in assay [3] (before drug administration 8.0 ± 1.1), the “Serum uric acid level, the last day during administration” value is on record as 7.4 ± 1.0 mg/dL. Besides, the “Serum uric acid level, difference” value in assay [3] (last day during administration versus before drug administration) is -0.7 ± 1.3 mg/dL. For the same molecule, in assay [1], the “systolic blood pressure level, Day 1” value was found to be 206 ± 2. Moreover, in assay [1], the “systolic blood pressure level, Day 7” value came out at 190 ± 3. The “systolic blood pressure level, Day 14” value in assay [1] was found to be 190 ± 1. Further, in assay [1], the “systolic blood pressure level, Day 28” value worked out at 189 ± 1. The “Serum cholesterol level, the last day during administration” value in assay [4] (12 patients with co-administered hypolipidemic drugs, before drug administration 250.25 ± 45.16) amounted to 214.58 ± 37.31 mg/dL; in assay [4] (95 patients without co-administered drug, before drug administration 206.28 ± 39.81) it was 197.66 ± 40.33 mg/dL; in assay [4] (all 107 patients, 40 to 160 mg/day, before drug administration 211.2 ± 42.6) it was 199.6 ± 40.2 mg/dL. Also, the “Serum cholesterol level, difference” value was -35.67 ± 41.49 mg/dL in assay [4] (12 patients with co-administered hypolipidemic drugs, paired t-test P < 0.05); -8.62 ± 26.60 mg/dL in assay [4] (95 patients without co-administered drug, paired t-test P < 0.01); -11.7 ± 29.7 mg/dL in assay [4] (all 107 patients, 40 to 160 mg/day, paired t-test P < 0.0001).

The values above are taken from patent publication US20070254932A1, “Drugs for Treating Duplication of Hypertension With Hyperuricemia and/or Hypercholesterolemia” (priority 2004, published 2007).
